Here are results for 2 compounds from patent publication US4529602A, “Method for treatment or prophylaxis of gastro-intestinal disease” (priority 1981, dated 1985).

As a reminder, the LD50 is the dose at which mortality reaches 50%. Lower therefore signals a more toxic substance. By inhibition is commonly meant how much of the control response was suppressed.

The structures appear in SMILES notation. Structures can show the parent of a compound that is named as a salt.

One data set relates to pepsin secretion. Kind of data set: Preventive effect on pepsin secretion in pylorus-ligated rats. In kind it is in vivo, Male SD-strain rats. The following applies: 100 mg/kg oral, 5 h after administration, hydrate. As to the method: (§1) Preventive effect on acid and pepsin secretions
(§2) Male SD-strain rats (6 to 7 weeks old) were starved for 48 hours, and then the pylori were ligated. Immediately after ligation, a solution or suspension of a test compound in distilled water was administered orally into the stomachs in an amount of 0.2 ml per 100 g of body weight (Dose: 100 mg/kg). Five hours after said administration of the test compound, the rats were sacrificed and the stomachs were removed. The gastric contents were centrifuged at 2,500 rpm for 10 minutes and the gastric juice was collected as the supernatant. The concentration of pepsin in the gastric juice was determined by Anson's method (c.f., J. Gen. Physiol., 22, pp. 77-89 (1938)) using hemoglobin as the substrate, and the preventive effect of the test compound on the pepsin secretion was estimated in terms of "decrease in pepsin concentration" according to the following formula: [formula]

The nature of another data set: in vivo. The settings on record: mouse, oral, male ddY-strain mice, 7 days. As to the method: After male ddY-strain mice (4 weeks old) were starved for 4 hours, a suspension of a test compound in distilled water containing a small amount of Tween 80 was administered orally to the mice in an amount of 0.1 ml per 10 g of body weight. After administration of the test compound, the mice were allowed free access to water and food. […] As a result, the LD50 of sulfodehydroabietic acid calcium salt was more than 2,000 mg/kg.

The next data set concerns Shay rat ulcers. The data set is described as follows: Effect on Shay rat ulcers (pylorus-ligated). It is filed as in vivo, Male SD-strain rats. The following applies: 17 h. On the procedure: Male SD-strain rats (6 to 7 weeks old) were starved for 48 hours and then the pylori were ligated. Immediately after ligation, a solution or suspension of a test compound in distilled water was administered orally into the stomachs in an amount of 0.2 ml per 100 g of body weight (Dose: 200 or 300 mg/kg). Seventeen hours after the administration of the test compound, the degree of ulceration in forestomach was examined according to the method of Takagi et al (Chem. Pharm. Bull., 11(10), pp. 1282-1290 (1963)) with a modified scoring system. Depending on the diameter of each lesions, the ulcers were classified into the following 4 grades. Ulcer index was calculated by the sum of the number of ulcers in each degree multiplied by respective ulcer score. Further, based on the ulcer index determined above, the preventive effect of the test compound on Shay rat ulcer was calculated by the following formula: [formula] (Results)

Data set [1] deals with urinary electrolytes. Kind of data set: Effect on urine volume and urinary electrolytes (Experiment 7). In kind it is in vivo, Male SD-strain rats. The settings on record: for Urine volume: 5 h, 2 rats per cage, control 12.3; for Na/K: 5 h urine, control 5.8. As to the method:
Male SD-strain rats (6 to 7 weeks old) were starved overnight, and a physiological saline solution (3 ml/100 g of body weight) was orally administered to the rats. One hour later, a solution or suspension of a test compound in a 0.25% CMC-physiological saline solution was administered orally to the rats in an amount of 3 ml per 100 g of body weight (Dose: 50 and 500 mg/kg). Immediately after administration of the test compound, the rats were placed into metabolic cages (2 rats per cage) and deprived of water and food for 5 hours. The urine samples which were excreted during a 5 hour period were collected. Sodium and potassium in the urine were estimated by a flame photometer (Hitachi Model-205).

Another data set concerns gastric acid secretion. The data set is described as follows: Preventive effect on gastric acid secretion in pylorus-ligated rats. It is filed as in vivo, Male SD-strain rats. The settings on record: 100 mg/kg oral, 5 h after administration, hydrate. As to the method:
as §1, §2
On the other hand, the concentration of free acid in the gastric juice was determined by titrating said gastric juice to pH 7.0 with 0.1N NaOH, and the preventive effect of the test compound on the gastric acid secretion was estimated in terms of "the decrease in acidity of gastric juice" according to the following formula: [formula] (Results)

For a further data set, the system named is gastric mucus secretion. Kind of data set: Effect on gastric mucus secretion (alcian blue binding). In kind it is in vivo, Male Sprague-Dawley rats. The following applies: 100 mg/kg oral, 1 h, hydrate; for Alcian blue binding: control (water) 198.5 ± 6.4. As to the method: Stimulating effect of a test compound on gastric mucus secretion was examined by the method of Corne et al. (J. Physiol., 242, pp. 116-117(1974); J. Pharm. Pharmacol., 33, pp. 348-352(1981)). Male Sprague-Dawley rats (6-7 weeks old; one group: 6 rats) were fasted for 20 hours before the experiments. Water was given ad libitum and coprophagy was prevented by using cages with wide-mesh floors. A test compound dissolved or suspended in distilled water was administered orally to the rats at a dose of 100 mg/kg. One hour after the administration of the test compound, the stomachs were dissected, opened along the greater curvature, rinsed in ice-cold 0.25M sucrose, and the rumen was discarded. Then, the stomachs were incubated in 10 ml of a 0.15M sucrose-0.05M sodium acetate solution (pH 5.8) containing alcian blue (1 mg/ml), at room temperature for 1.5 hours. Finally, the stomachs were placed in 15 ml of a 0.5M magnesium chloride solution for 2 hours with occasional shaking and then removed, and the magnesium chloride solution was shaken briefly with 10 ml of diethyl ether. The optical density of the aqueous layer was read at 605 nm, and the degree of alcian blue binding was expressed as μg alcian blue/g of tissue. The stimulating effect of the test compound on gastric mucus secretion was estimated in terms of "the increase in alcian blue binding" which was calculated by the following formula: [formula] (Results)

The next data set deals with rats. Kind of data set: Acute oral toxicity in rats (Experiment 10). The settings on record: male SD-strain rats, 7 days, hydrate, 10080 min. In kind it is in vivo. On the procedure: (§3) After male SD-strain rats (6-7 weeks old) were starved for 20 hours, a solution or suspension of a test compound in distilled water was administered orally to the rats in an amount of one ml per 100 g of body weight. After administration of the test compound, the rats were allowed free access to water and food.

Another data set concerns gastric mucous membrane. Kind of data set: Protective effect on gastric mucous membrane (excised stomach in artificial gastric juice). Further details: species or system Male Sprague-Dawley rats. The settings on record: 37° C., 60 min; for Amount of tyrosine: control 2.42 ± 0.15; for Amount of tyrosine / Inhibition (%) of digestion of mucous membrane: hydrate. On the procedure:
Protective effect of a test compound on gastric mucous membrane was examined by the method of Diago et al. (Yakugaku Zasshi, 101, 452-457(1981)). Male Sprague-Dawley rats (6-7 weeks old; one group: 5 rats) were fasted for 20 hours before the experiments. Water was given ad libitum and coprophagy was prevented by using cages with wide-mesh floors. The stomach was excised, opened along the greater curvature, rinsed in physiological saline solution, and the rumen was discarded. The stomach was incubated in 10 ml of an artificial gastric juice (100 mM HCl, 0.3% pepsin, 0.2% NaCl) containing a test compound, at 37° C. for 60 minutes. After the incubation, 2 ml of 7% trichloroacetic acid were added to 0.5 ml of medium, and the mixture was centrifuged. The amount of tyrosine in the supernatant was measured by using Folin-Ciocelteu reagent (J. gen. Physiol., 16, 59-63(1932)), and expressed as mg tyrosine/g tissue. The protective effect of the test compound on gastric mucous membrane was estimated in terms of "the inhibition of digestion of mucous membrane" which was calculated by the following formula: [formula] (Results)

Data set [2] deals with urinary electrolytes. Kind of data set: Effect on urinary electrolytes (Experiment 9). In kind it is in vivo, Male SD-strain rats. The following applies: for Urine volume: 4 h, control 6.5 ± 0.3; for Na/K ratio: 4 h urine, control 5.8 ± 0.6. On the procedure:
Male SD-strain rats (6 to 7 weeks old, one group: 6 rats) were starved overnight, and a physiological saline solution (3 ml/100 g of body weight) was orally administered to the rats. One hour later, a suspension of a test compound in a physiological saline solution was administered orally to the rats in an amount of 3 ml per 100 g of body weight (Dose: 500 or 1,000 mg/kg). Immediately after administration of the test compound, the rats were placed into metabolic cages (one rat per cage) and deprived of water and food for 4 hours. The urine samples which were excreted during a 4 hour period were collected. Sodium and potassium in the urine were estimated by a flame photometer (Hitachi Model-205).

In a further data set the test system is aspirin-induced ulcers. The data set is described as follows: Effect on aspirin-induced ulcers. It is filed as in vivo, Male Donryu-strain rats. The following applies: p.o. 0.8 m mol./kg (400 mg/kg); aspirin 200 mg/kg. As to the method:
Male Donryu-strain rats (8 to 9 weeks old) were starved overnight, and a solution or suspension of a test compound in distilled water was administered orally into the stomachs in an amount of one ml per 100 g of body weight. Half an hour later, a suspension of aspirin in 0.25% CMC solution was administered orally to the rats in an amount of 0.5 ml per 100 g of body weight (Dose: 200 mg/kg). Four hours after the administration of aspirin, the rats were sacrificed and the stomachs were removed and inflated by injecting 10 ml of 1% formalin solution to fix the inner layers of the gastric walls. The stomach was then incised along the greater curvature and the lengths of the lesions were measured and summated to give ulcer index (in mm) for each animal. The preventive effect of the test compound on aspirin-induced ulcers were calculated by the following formula: [formula] (Results)

The nature of data set [3]: Acute oral toxicity in rats (Experiment 10). The following applies: rat, in vivo, male SD-strain rats, 7 days. It is filed as in vivo. As to the method: as §3
Where [4] appears, read: 1 mg/ml in artificial gastric juice.
Where [5] appears, read: 4 mg/ml in artificial gastric juice.

Take `CC(C)c1cc2c(cc1S(=O)(=O)O)[C@@]1(C)CCC[C@@](C)(C(=O)O)[C@@H]1CC2` [Sulfodehydroabietic acid calcium salt, sulfodehydroabietic acid calcium salt 2.5 hydrate]: in the data set with pepsin secretion, the “Decrease (%) in pepsin concentration” value was 99%. In “in vivo”, this compound returned an LD50 at 168 h greater than 2000 mg/kg. Also, the “Preventive effect on Shay rat ulcers” value in the data set with Shay rat ulcers (300 mg/kg oral) came to 100%. In the data set on urinary electrolytes [1] (50 mg/kg oral), this compound had a Urine volume of 11.5 mL and a Na/K of 5.2. In the data set with urinary electrolytes [1] (500 mg/kg oral), the Urine volume was found to be 11.3 mL and the Na/K is 6.8. The “Decrease (%) in acidity of gastric juice” value in the data set on gastric acid secretion was 30%. Also, in the data set on gastric mucus secretion, the Alcian blue binding is reported as 284.7 ± 14.9 μg/g tissue and the “Increase (%) in alcian blue binding” value came to 44%. Besides, in the data set with rats, the LD50 is greater than 2000 mg/kg. Also, in the data set with gastric mucous membrane (setting [4]), the Amount of tyrosine is recorded as 1.72 ± 0.08 mg/g tissue and the “Inhibition (%) of digestion of mucous membrane” value was determined as 29%. Also, in the data set with gastric mucous membrane (setting [5]), the Amount of tyrosine was found to be 0.86 ± 0.04 mg/g tissue and the “Inhibition (%) of digestion of mucous membrane” value worked out at 64%.

For `CC(C)c1cc2c(cc1S(=O)(=O)O)[C@@]1(C)CCC[C@@](C)(C(=O)O)[C@@H]1CC2` [Sulfodehydroabietic acid monosodium salt, 1,4a-dimethyl-1-carboxy-6-sulfo-7-isopropyl-1,2,3,4,4a,9,10,10a-octahydro-phenanthrene monosodium salt 5 hydrate], the “Decrease (%) in pepsin concentration” value in the data set with pepsin secretion is 96%. Moreover, in the data set on urinary electrolytes [2] (500 mg/kg oral), the Urine volume was found to be 6.2 ± 0.5 mL and the Na/K ratio is 5.6 ± 0.5. In the data set on urinary electrolytes [2] (1000 mg/kg oral), the Urine volume amounted to 4.7 ± 0.4 mL and the Na/K ratio is listed as 5.9 ± 0.2. Moreover, in the data set with urinary electrolytes [2] (500 or 1000 mg/kg oral, rats, in words), the “change in urinary sodium-potassium ratio” value is given as “no substantial change in urinary sodium-potassium ratio”. Besides, in the data set on Shay rat ulcers (200 mg/kg oral, hydrate), the “Preventive effect on Shay rat ulcers” value turned out to be 100%. Also, in the data set with aspirin-induced ulcers, the “Preventive effect on aspirin-induced ulcers” value is listed as 68%. In the data set on gastric acid secretion, the “Decrease (%) in acidity of gastric juice” value came to 43%. In addition, in the data set on gastric mucus secretion, the Alcian blue binding is given as 287.3 ± 34.2 μg/g tissue and the “Increase (%) in alcian blue binding” value came to 45%. The LD50 at 168 h in [3] is greater than 2000 mg/kg. In the data set with gastric mucous membrane (setting [4]), this compound yielded an Amount of tyrosine of 1.61 ± 0.13 mg/g tissue. The compound also gave an Amount of tyrosine with gastric mucous membrane (setting [5]) of 0.95 ± 0.07 mg/g tissue. Further, the inhibition at 1000 µg/mL in the data set with gastric mucous membrane (Rattus norvegicus, 1 h, 1 mg/ml in artificial gastric juice, read-out: Inhibition (%) of digestion of mucous membrane) amounted to 33%. In the data set on gastric mucous membrane (Rattus norvegicus, 1 h, 4 mg/ml in artificial gastric juice, read-out: Inhibition (%) of digestion of mucous membrane), the inhibition at 4000 µg/mL was 61%.
